Laboratory results from paper PMC8402609, “Guiding the Immune Response to a Conserved Epitope in MSP2, an Intrinsically Disordered Malaria Vaccine Candidate” (Vaccines, 2021).
Where a SMILES comes first, the peptide text is derived from it. Bridges are numbered along the chain shown (N, C = ends). Roman numbers before positions name the chains, in order.

Columns and labels:
4D11 IgG = assay: ELISA binding of 4D11 IgG against BSA-peptide conjugates; design: species or system mouse; details: peptide maleimide-conjugated to BSA coated on plate
Description: […] The plates were blocked with 1% BSA in PBS for 1 h before adding 100 µL of 4D11 and 9H4 IgG in eleven half log10 serial dilutions starting from stock at 1 µg/mL. After 1 h incubation at 4 °C and washing, antigen-bound antibodies were detected with goat anti-mouse IgG (1:2000 dilution) and freshly prepared 2,2-azinobis(3-ethylbenzthiazolinesulfonic acid (ABTS) substrate (1 mm) in citric acid buffer, pH 4.2, containing […]. The absorbance was read at 405 nm using a microplate reader. For determination of peptide-specific antibody titres, peptide-BSA conjugate was coated on the plate at 2 µg/mL. Individual mouse sera were added at a starting dilution of 1000-fold with six half log10 serial dilutions. Endpoint titres were taken as the x-axis intercept of the dilution curve at an absorbance value of three standard deviations (s.d.) greater than OD405 for naïve mouse serum. The fine specificities of the antisera were determined by ELISA using an array of nine biotinylated 13-residue peptides (A-I), which overlap by 2 or 3 residues and spanned the C-terminal region of MSP2 [11, 13]. […] Antibody was detected with the same protocol as mentioned above.
Anti-peptide antibody titres in the sera of immunised mice were determined using ELISA plates coated with the corresponding peptide-bovine serum albumin (BSA) conjugates. […]

[1] = system: FC27 (D10 clone) merozoites; assay: Merozoite ELISA with pooled mouse sera, FC27 merozoites; format: in vivo, P. falciparum; details: pooled sera of immunised mice, two-fold dilutions from 1:500; merozoites 1 × 10^7/well; OD 450 nm; rank order in words
Description: (§1) The reactivity of mouse polyclonal antibodies with merozoites was determined by ELISA using merozoites from both the 3D7 and FC27 (D10 clone) strains of P. falciparum. The parasites were cultured in human erythrocytes at a haematocrit of 3% in RPMI media supplemented with […]. Viable merozoites were isolated as described previously. Highly synchronised late-stage schizonts were magnet-purified via a MACS magnet separation column (Miltenyi Biotec, Macquarie Park, Australia) and treated with E64 protease inhibitor (ThermoFisher Scientific, Scoresby, Australia) until mature merozoites were formed. Merozoites were released forcing them through a 1.2 µm filter.
Purified whole merozoites were resuspended in PBS supplemented with a cocktail of protease inhibitors (Roche, Castle Hill, Australia). Isolated merozoites were used to coat Nunc Maxisorp™ plates at 1 × 10^7/well and incubated overnight at 4 °C. The plates were then blocked with 1% casein in PBS at 37 °C for 2 h (or overnight at 4 °C). Pooled sera samples were added to wells at two-fold serial dilution in duplicate with a starting dilution of 1:500 and incubated at RT for 1 h. The plates were further incubated with HRP-conjugated goat anti-mouse IgG antibody diluted at 1:1000 in 0.1% casein in PBS at RT for 1 h. The plates were washed six times with PBS between each incubation step. […] The OD was measured at 450 nm. […]

3D7 merozoites = assay: Merozoite ELISA with pooled mouse sera, 3D7 merozoites; format: in vivo, P. falciparum; details: pooled sera of immunised mice, two-fold dilutions from 1:500; merozoites 1 × 10^7/well; OD 450 nm; rank order in words
Description: as §1
Purified whole merozoites were resuspended in PBS supplemented with a cocktail of protease inhibitors (Roche, Castle Hill, Australia). Isolated merozoites were used to coat Nunc Maxisorp™ plates at 1 × 10^7/well and incubated overnight at 4 °C. The plates were then blocked with 1% casein in PBS at 37 °C for 2 h (or overnight at 4 °C). Pooled sera samples were added to wells at two-fold serial dilution in duplicate with a starting dilution of 1:500 and incubated at RT for 1 h. The plates were further incubated with HRP-conjugated goat anti-mouse IgG antibody diluted at 1:1000 in 0.1% casein in PBS at RT for 1 h. The plates were washed six times with PBS between each incubation step. Finally, 3,3′,5,5′-tetramethylbenzidine (TMB) substrate (Thermo Fisher Scientific, Scoresby, Australia) was added to the wells for the development of colour for 15 min and the reaction was stopped with 1 M sulfuric acid. The OD was measured at 450 nm.
The ability to induce an immune response that can recognise parasite MSP2 is essential in the design of an MSP2-based peptide vaccine. We isolated merozoites from both 3D7 and FC27 (D10 clone) strains of P. falciparum, coated them on ELISA plates and probed them with sera from the immunised mice (Figure 6). mAb 4D11 and the MSP2 mix pre-bleed were also included as positive and negative controls, respectively.

[2] = system: biotinylated 13-residue peptides (A-I) spanning the C-terminal region of MSP2; assay: Fine specificity of antisera by peptide array ELISA (peptides A-I); format: in vivo, mouse; details: individual sera of mice immunised with peptide-KLH conjugate or MSP2 mix, diluted 1:1000; indirect ELISA; peptides C-D span 9H4 epitope, E-G span 4D11 epitope
Description: Peptide was conjugated to maleimide-activated KLH (Sigma-Aldrich) following the manufacturer’s protocol. Briefly, 1 mg of each peptide was mixed with 1 mg KLH in the provided buffer for a 200-fold molar excess of peptide to carrier protein. The reaction mixture was degassed under nitrogen and mixed at room temperature (RT) for 2 h. Any unreacted peptide was removed by dialysis against PBS using a 10 kDa cut-off membrane. The extent of conjugation was determined using Ellman’s reagent. Peptide-KLH conjugate stock solution was stored at 4 °C until further use. Prior to immunisation, peptide-KLH conjugates were diluted to 1 mg/mL in PBS and formulated with Montanide ISA720 at an antigen:adjuvant ratio of 3:7 and a final concentration of 0.3 mg/mL. The 3D7 + FC27 MSP2 mix was formulated using 0.15 mg/mL of each allelic form. Female C57BL/6 mice (n = 6 per group) were inoculated subcutaneously with 100 µL containing 30 µg of antigen at weeks 0, 4 and 8, then euthanised at week 10. Sera were collected and stored at −80 °C.
To determine peptide-KLH binding to 4D11 and 9H4, Maxisorp 96-well microtitre plates (Nunc, Rochester, NY, USA) were coated overnight at 4 °C with 2 µg/mL peptide-KLH in PBS. The plates were blocked with 1% BSA in PBS for 1 h before adding 100 µL of 4D11 and 9H4 IgG in eleven half log10 serial dilutions starting from stock at 1 µg/mL. After 1 h incubation at 4 °C and washing, antigen-bound antibodies were detected with goat anti-mouse IgG (1:2000 dilution) and freshly prepared 2,2-azinobis(3-ethylbenzthiazolinesulfonic acid (ABTS) substrate (1 mm) in citric acid buffer, pH 4.2, containing […]. The absorbance was read at 405 nm using a microplate reader. For determination of peptide-specific antibody titres, peptide-BSA conjugate was coated on the plate at 2 µg/mL. Individual mouse sera were added at a starting dilution of 1000-fold with six half log10 serial dilutions. Endpoint titres were taken as the x-axis intercept of the dilution curve at an absorbance value of three standard deviations (s.d.) greater than OD405 for naïve mouse serum. The fine specificities of the antisera were determined by ELISA using an array of nine biotinylated 13-residue peptides (A-I), which overlap by 2 or 3 residues and spanned the C-terminal region of MSP2 [11, 13]. Maxisorp 96-well microtitre plates (Nunc) were coated overnight at 4 °C with 1 µg/mL streptavidin in PBS. The plates were blocked with 1% BSA in PBS for 2 h before adding 1:500 biotinylated peptides. Individual sera samples were diluted 1:1000 in blocking solution before addition to the peptide array. Antibody was detected with the same protocol as mentioned above.
To characterise the response against these dimeric peptides further, the specificity of the induced antibodies was determined by indirect ELISA using an array of nine biotinylated peptides that spanned the epitopes recognised by the 4D11 and 9H4 mAbs (peptides A-I) (Table 3). Peptides C and D spanned the 9H4 epitope, whilst peptides E to G spanned the 4D11 epitope. […] However, the response against MSP2 was largely dominated by a single mouse in the group.

Compound	4D11 IgG binding to BSA-peptide conjugate (4D11 IgG)	reactivity of pooled sera with FC27 merozoites [1]	reactivity of pooled sera with 3D7 merozoites (3D7 merozoites)	specificity of the induced antibodies (peptide array A-I) [2]
SKWICANRSVCPI [non-relevant peptide maleimide-conjugated to BSA, linker control]	no 4D11 IgG binding			
CC(=O)N[C@@H](CC(N)=O)C(=O)N[C@@H](CCCCN)C(=O)N[C@@H](CCC(=O)O)C(=O)N[C@@H](CC(N)=O)C(=O)N[C@@H](CSSC[C@H](NC(=O)[C@H](CC(N)=O)NC(=O)[C@H](CCC(=O)O)NC(=O)[C@H](CCCCN)NC(=O)[C@H](CC(N)=O)NC(C)=O)C(=O)NCC(=O)N[C@@H](C)C(=O)N[C@@H](C)C(=O)N[C@@H](CS)C(N)=O)C(=O)NCC(=O)N[C@@H](C)C(=O)N[C@@H](C)C(N)=O [Peptide D1] (I: Ac-NKENCGAAC-NH2 / II: Ac-NKENCGAA-NH2; disulfide I:5-II:5)		weak reactivity	weak reactivity	almost exclusively directed to the 4D11 epitope
